Test results reported in patent US20090247579A1, “2-[3H-THIAZOL-2-YLIDINEMETHYL]PYRIDINES AND RELATED COMPOUNDS AND THEIR USE” (CANCER RESEARCH TECHNOLOGY LIMITED, priority 2006, published 2009).
Like-named read-outs stand apart in the source and are kept apart here.

Columns and labels:
[1] = test system: SW48 (MLH1); experiment: Modified MTT assay, colon panel SW48; assay type: cell-based
Description: (§1) Relative drug sensitivities (Resistance Factor) and IC50 values were determined by a modified MTT assay (see, e.g., Mosmann, 1983; Plumb et al., 1989), as described below: • (1) Trypsinise a sub-confluent monolayer culture and collect cells in growth medium containing serum. Centrifuge the suspension (200 g, 5 minutes) to pellet cells, re-suspend in growth medium, and count cells. Dilute cells to a density of 5×10^3 cells/mL allowing 60 mL of cell suspension for 3 microtitre plates. Transfer cell suspension to a 10 cm petri dish, and with a multichannel pipette add 200 μL to each well of the central 10 columns of a flat bottomed 96-well plate (80 wells per plate) starting with column 2 and ending with column 11. Add 200 μL of growth medium to the 8 wells in columns 1 and 12. […] Glycine buffer is added (25 μL per well) to all wells containing DMSO. • (8) Absorbance is recorded at 570 nm with the wells in column 1, which contained medium and MTT but no cells used as a blank. • (9) A graph is plotted of absorbance (y-axis) against drug concentration (x-axis). The mean absorbance reading from the wells in columns 2 and 11 is used as the control absorbance and the IC50 concentration is determined as the drug concentration required to reduce the absorbance to half that of the control. IC10 or IC90 values can be determined in the same manner. […]

[2] = test system: T84; experiment: Modified MTT assay, colon panel T84; assay type: cell-based
Description: as §1

[3] = test system: MDAMB231; experiment: Cancer cell line panel, MDAMB231 (breast); assay type: cell-based
Description: as §1

[4] = test system: SKMES; experiment: Cancer cell line panel, SKMES (NSCLC); assay type: cell-based
Description: as §1

[5] = test system: HS294; experiment: Cancer cell line panel, HS294 (melanoma); assay type: cell-based
Description: as §1

[6] = test system: LDAN; experiment: Cancer cell line panel, LDAN (NSCLC); assay type: cell-based
Description: as §1

[7] = test system: T47D; experiment: Cancer cell line panel, T47D (breast); assay type: cell-based
Description: as §1

[8] = test system: OVCAR4; experiment: Cancer cell line panel, OVCAR4 (ovary); assay type: cell-based
Description: as §1

[9] = test system: CALU; experiment: Cancer cell line panel, CALU (NSCLC); assay type: cell-based
Description: as §1

[10] = test system: HCT116 (MLH1); experiment: Modified MTT assay, colon panel HCT116; assay type: cell-based, human
Description: as §1

[11] = test system: HCT15 (MSH6); experiment: Modified MTT assay, colon panel HCT15; assay type: cell-based
Description: as §1

[12] = test system: PC3; experiment: Cancer cell line panel, PC3 (prostate); assay type: cell-based
Description: as §1

[13] = test system: WIL; experiment: Cancer cell line panel, WIL (NSCLC); assay type: cell-based
Description: as §1

[14] = test system: A2 (MLH1−ve, MMR deficient); experiment: Modified MTT assay, A2 line (A2780/cp70 + chromosome 3, MLH1 -ve); assay type: cell-based, human; conditions: for IC50: A2 line; for RF (Resistance Factor): fold difference in resistance between A2 (MMR deficient) and A1 (MMR proficient)
Description: Relative drug sensitivities (Resistance Factor) and IC50 values were determined by a modified MTT assay (see, e.g., Mosmann, 1983; Plumb et al., 1989), as described below: • (1) Trypsinise a sub-confluent monolayer culture and collect cells in growth medium containing serum. Centrifuge the suspension (200 g, 5 minutes) to pellet cells, re-suspend in growth medium, and count cells. Dilute cells to a density of 5×10^3 cells/mL allowing 60 mL of cell suspension for 3 microtitre plates. Transfer cell suspension to a 10 cm petri dish, and with a multichannel pipette add 200 μL to each well of the central 10 columns of a flat bottomed 96-well plate (80 wells per plate) starting with column 2 and ending with column 11. Add 200 μL of growth medium to the 8 wells in columns 1 and 12. Put the plates in a plastic box and incubate in a humidified atmosphere at 37° C. for 2-3 days so that cells are in the exponential phase of growth for drug addition. • (2) Prepare a serial 5-fold dilution of the cytotoxic drug in growth medium to give 8 concentrations. Pipette 6 mL of growth medium in to each of 7 universal containers (30 mL). Prepare 10 mL of the highest concentration of the drug and transfer 1.5 mL of this solution to the first universal container. Mix and then transfer 1.5 mL to the next universal container. Continue until the seventh universal container is reached. The concentrations should be chosen so that the highest concentration kills most of the cells and the lowest kills none of the cells. Normally, three plates are used for each drug to give triplicate determinations within one experiment. • (3) The medium is removed from all the wells in columns 2 to 11. This can be achieved with a hypodermic needle attached to a suction line. Cells in the 8 wells in columns 2 and 11 are fed with 200 μL of fresh growth medium. The drug solutions are transferred to 10 cm petri dishes and 200 μL added to all 8 wells of a column. For ease of analysis arrange the drug solutions in order so that the highest is in column 3 down to the lowest in column 10. Plates are returned to the plastic box and incubated for 24 hours. • (4) At the end of the drug exposure period, the medium is removed from all wells containing cells and the cells are fed with 200 μL of fresh medium. • (5) The plates are fed daily for two more days. • (6) The plates are fed with 200 μL of fresh medium and 50 μL of the MTT solution (5 mg/mL in PBS) is added to all wells in columns 1 to 11. Plates are wrapped in aluminium foil and incubated for 4 hours in a humidified atmosphere at 37° C. • (7) The medium and MTT are then removed from the wells and the purple MTT-formazan crystals dissolved by addition of 200 μL of DMSO to all wells in columns 1 to 11. Glycine buffer is added (25 μL per well) to all wells containing DMSO. • (8) Absorbance is recorded at 570 nm with the wells in column 1, which contained medium and MTT but no cells used as a blank. • (9) A graph is plotted of absorbance (y-axis) against drug concentration (x-axis). The mean absorbance reading from the wells in columns 2 and 11 is used as the control absorbance and the IC50 concentration is determined as the drug concentration required to reduce the absorbance to half that of the control. IC10 or IC90 values can be determined in the same manner.
A1, E1, and A2 are derived by transfer of human chromosome 3 into A2780/cp70. MLH1 is located on chromosome 3.
IC50 values (μM) for A1 (MLH1+ve, MMR proficient) or E1 (MLH1+ve, MMR proficient) and A2 (MLH1−ve, MMR deficient) lines and Resistance Factors (RF) (the fold difference in resistance between the A2 line, MMR deficient, and the A1 line, MMR proficient) were determined based on the MTT assay described above for several compounds of the present invention (including, e.g., MMR201). Compounds showing increased activity against the MLH1 deficient A2 line compared to the MLH1 proficient A1 or E1 line have RF values less than 1.

[15] = test system: DLD1 (MSH6); experiment: Modified MTT assay, colon panel DLD1; assay type: cell-based
Description: as §1

[16] = read-out: Cisplatin IC50, MMR deficient, p53 wt

N.N.[Cl][Pt][Cl] [Cisplatin, reference compound]
IC50 [1, 16]: 1.82 ± 0.07 µM | IC50 ([2]; read-out: Cisplatin IC50, MMR proficient, p53 ?): 4.23 ± 0.86 µM | IC50 ([3]; read-out: Cisplatin): 11.2 ± 0.7 µM | IC50 ([4]; read-out: Cisplatin): 5.16 ± 0.08 µM | IC50 ([5]; read-out: Cisplatin): 1.49 ± 0.08 µM | IC50 ([6]; read-out: Cisplatin): 1.23 ± 0.07 µM | IC50 ([7]; read-out: Cisplatin): 5.42 ± 0.22 µM | IC50 ([8]; read-out: Cisplatin): 1.64 ± 0.15 µM | IC50 ([9]; read-out: Cisplatin): 7.25 ± 0.58 µM | IC50 [10, 16]: 2.13 ± 0.03 µM | IC50 ([11]; read-out: Cisplatin IC50, MMR deficient, p53 wt/mut): 2.92 ± 0.02 µM | IC50 ([12]; read-out: Cisplatin): 2.27 ± 0.27 µM | IC50 ([13]; read-out: Cisplatin): 3.94 ± 0.22 µM | IC50 [14]: 1.91 ± 0.087 µM | RF (Resistance Factor) [14]: 2.7 | IC50 ([15]; read-out: Cisplatin IC50, MMR deficient, p53 mut): 1.67 ± 0.03 µM

CC[n+]1c(/C=C2\Sc3oc4ccccc4c3N2C)ccc2cc(C)ccc21.[I-] [MMR201]
IC50 ([1]; Homo sapiens, MMR deficient, p53 wt, read-out: MMR201 IC50): 0.0769 ± 0.0073 µM | IC50 ([2]; Homo sapiens, MMR proficient, p53 ?, read-out: MMR201 IC50): 1.47 ± 0.175 µM | IC50 ([3]; Homo sapiens, MDA-MB-231, read-out: MMR201): 0.235 ± 0.0225 µM | IC50 ([4]; read-out: MMR201): 0.398 ± 0.0619 µM | IC50 ([5]; read-out: MMR201): 0.105 ± 0.0051 µM | IC50 ([6]; read-out: MMR201): 0.1144 ± 7e-05 µM | IC50 ([7]; Homo sapiens, read-out: MMR201): 0.319 ± 0.026 µM | IC50 ([8]; Homo sapiens, OVCAR-4, read-out: MMR201): 0.733 ± 0.0412 µM | IC50 ([9]; read-out: MMR201): 0.38 ± 0.0075 µM | IC50 ([10]; Homo sapiens, HCT-116, MMR deficient, p53 wt, read-out: MMR201 IC50): 0.0379 ± 0.0031 µM | IC50 ([11]; Homo sapiens, HCT-15, MMR deficient, p53 wt/mut, read-out: MMR201 IC50): 0.584 ± 0.0551 µM | IC50 ([12]; Homo sapiens, PC-3, read-out: MMR201): 0.531 ± 0.0503 µM | IC50 ([13]; read-out: MMR201): 0.153 ± 0.0137 µM | IC50 ([14]; Homo sapiens, A2780/CP70): 0.023 ± 0.001 µM | RF (Resistance Factor) [14]: 0.19 | IC50 ([15]; Homo sapiens, DLD-1, MMR deficient, p53 mut, read-out: MMR201 IC50): 0.186 ± 0.0083 µM
